Source: patent publication US7964560B2, “Hepatitis C virus inhibitors” (Bristol-Myers Squibb Company, priority 2008, dated 2011)
Where two headings read alike, the source gives them in different places.

Key:
[1] = test system: HCV replicon in HUH-7 cells; test: HCV replicon FRET assay; assay type: cell-based, Hepatitis C virus (strain 1b); details: Hepatitis C virus, Huh-7, Table 2, HCV replicon, replicon assay format not stated, read-out: EC50
Text: An HCV replicon whole cell system was established as described by Lohmann, V. et al., Science, 285(5424):110-113 (1999). This system enabled us to evaluate the effects of our HCV Protease compounds on HCV RNA replication. Briefly, using the HCV strain 1b sequence described in the Lohmann paper (Accession number: AJ238799), an HCV cDNA was synthesized by Operon Technologies, Inc. (Alameda, Calif.), and the full-length replicon was then assembled in plasmid pGem9zf(+) (Promega, Madison, Wis.) using standard molecular biology techniques. The replicon consists of (i) the HCV 5′ UTR fused to the first 12 amino acids of the capsid protein, (ii) the neomycin phosphotransferase gene (neo), (iii) the IRES from encephalomyocarditis virus (EMCV), and (iv) HCV NS3 to NS5B genes and the HCV 3′ UTR. Plasmid DNAs were linearized with ScaI and RNA transcripts were synthesized in vitro using the T7 MegaScript transcription kit (Ambion, Austin, Tex.) according to manufacturer's directions. In vitro transcripts of the cDNA were transfected into the human hepatoma cell line, HUH-7. […] Resulting cell lines were characterized for positive and negative strand RNA production and protein production over time.
The HCV replicon FRET assay was developed to monitor the inhibitory effects of compounds described in the disclosure on HCV viral replication. HUH-7 cells, constitutively expressing the HCV replicon, were grown in Dulbecco's Modified Eagle Media (DMEM) (Gibco-BRL) containing 10% Fetal calf serum (FCS) (Sigma) and 1 mg/ml G418 (Gibco-BRL). Cells were seeded the night before (1.5×10^4 cells/well) in 96-well tissue-culture sterile plates. Compound and no compound controls were prepared in DMEM containing 4% FCS, 1:100 Penicillin/Streptomysin (Gibco-BRL), 1:100 L-glutamine and 5% DMSO in the dilution plate (0.5% DMSO final concentration in the assay). Compound/DMSO mixes were added to the cells and incubated for 4 days at 37° C. After 4 days, cells were first assessed for cytotoxicity using alamar Blue (Trek Diagnostic Systems) for a CC50 reading. The toxicity of compound (CC50) was determined by adding 1/10th volume of alamar Blue to the media incubating the cells. After 4 h, the fluorescence signal from each well was read, with an excitation wavelength at 530 nm and an emission wavelength of 580 nm, using the CYTOFLUOR® Series 4000 (Perspective Biosystems). Plates were then rinsed thoroughly with Phosphate-Buffered Saline (PBS) (3 times 150 μl). The cells were lysed with 25 μl of a lysis assay reagent containing an HCV protease substrate (5× cell Luciferase cell culture lysis reagent (PROMEGA® #E153A) diluted to 1× with distilled water, NaCl added to 150 mM final, the FRET peptide substrate (as described for the enzyme assay above) diluted to 10 μM final from a 2 mM stock in 100% DMSO. The plate was then placed into the CYTOFLUOR® 4000 instrument which had been set to 340 nm excitation/490 nm emission, automatic mode for 21 cycles and the plate read in a kinetic mode. EC50 determinations were carried out as described for the IC50 determinations.

[2] = target: T1, HCV NS3/4A protease complex, BMS strain (UniProt P27958, species not given/STRAIN_BMS); test: FRET peptide assay to monitor HCV NS3/4A proteolytic activity (BMS strain); assay type: biochemical, Hepatitis C virus (genotype 1a); details: Table 2, NS3/4A BMS strain
T1 construct: said of H77 and J4L6S; fused on or other part: three-lysine solubilising tail at the end of NS4A (printed for the H77 and J4L6S constructs; probably the same for BMS)
T1 sequence (P27958 1027-1657, change not shown, one chain of several): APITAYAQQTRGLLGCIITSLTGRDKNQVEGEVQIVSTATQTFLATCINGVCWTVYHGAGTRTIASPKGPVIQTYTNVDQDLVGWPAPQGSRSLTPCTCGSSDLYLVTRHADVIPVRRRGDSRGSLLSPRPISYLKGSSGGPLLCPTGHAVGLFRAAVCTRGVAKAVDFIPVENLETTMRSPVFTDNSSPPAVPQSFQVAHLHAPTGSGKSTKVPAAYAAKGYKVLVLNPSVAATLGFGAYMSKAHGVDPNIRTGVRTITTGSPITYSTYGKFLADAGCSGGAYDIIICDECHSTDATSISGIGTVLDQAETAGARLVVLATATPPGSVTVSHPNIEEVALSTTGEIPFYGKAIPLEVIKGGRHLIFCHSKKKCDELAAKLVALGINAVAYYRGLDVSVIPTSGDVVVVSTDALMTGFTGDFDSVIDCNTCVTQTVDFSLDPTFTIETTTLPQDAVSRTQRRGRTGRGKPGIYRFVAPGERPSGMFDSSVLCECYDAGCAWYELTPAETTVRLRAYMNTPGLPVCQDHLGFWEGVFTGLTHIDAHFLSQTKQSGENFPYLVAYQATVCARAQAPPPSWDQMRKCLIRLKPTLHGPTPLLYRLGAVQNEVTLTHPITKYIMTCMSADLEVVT
Text: HCV […] protease complexes, derived from the BMS strain, H77 strain or J4L6S strain, were generated, as described below. These purified recombinant proteins were generated for use in a homogeneous assay (see below) to provide an indication of how effective compounds of the present disclosure would be in inhibiting HCV NS3 proteolytic activity.
Serum from an HCV-infected patient was obtained from Dr. T. Wright, San Francisco Hospital. An engineered full-length cDNA (compliment deoxyribonucleic acid) template of the HCV genome (BMS strain) was constructed from DNA fragments obtained by reverse transcription-PCR (RT-PCR) of serum RNA (ribonucleic acid) and using primers selected on the basis of homology between other genotype 1a strains. From the determination of the entire genome sequence, a genotype 1a was assigned to the HCV isolate according to the classification of Simmonds et al. (See Simmonds, P. et al., J. Clin. Microbiol., 31(6), 1493-1503 (1993)). […] The infectious clones, H77 (1a genotype) and J4L6S (1b genotype) were obtained from R. Purcell (NIH) and the sequences are published in GENBANK® (AAB67036, see Yanagi, M. et al., Proc. Natl. Acad. Sci. U.S.A., 94(16):8738-8743 (1997); AF054247, see Yanagi, M. et al., Virology, 244(1):161-172 (1998)).
The H77 and J4L6S strains were used for production of recombinant NS3/4A protease complexes. DNA encoding the recombinant HCV NS3/4A protease complex (amino acids 1027 to 1711) for these strains were manipulated as described by P. Gallinari et al. (see Gallinari, P. et al, Biochemistry, 38(17):5620-5632 (1999)). Briefly, a three-lysine solubilizing tail was added at the 3′-end of the NS4A coding region. The cysteine in the P1 position of the NS4A-NS4B cleavage site (amino acid 1711) was changed to a glycine to avoid the proteolytic cleavage of the lysine tag. Furthermore, a cysteine to serine mutation was introduced by PCR at amino acid position 1454 to prevent the autolytic cleavage in the NS3 helicase domain. The variant DNA fragment was cloned in the pET21b bacterial expression vector (Novagen) and the NS3/4A complex was expressed in Escherichia. coli strain BL21 (DE3) (Invitrogen) following the protocol described by P. Gallinari et al. (see Gallinari, P. et al., J. Virol., 72(8):6758-6769 (1998)) with modifications. Briefly, the NS3/4A protease complex expression was induced with 0.5 millimolar (mM) Isopropyl β-D-1-thiogalactopyranoside (IPTG) for 22 hours (h) at 20° C. A typical fermentation (1 Liter (L)) yielded approximately 10 grams (g) of wet cell paste. The cells were resuspended in lysis buffer (10 mL/g) consisting of 25 mM N-(2-hydroxyethyl)piperazine-N′-(2-ethane sulfonic acid) (HEPES), pH 7.5, 20% glycerol, 500 mM sodium chloride (NaCl), 0.5% Triton X-100, 1 microgram/milliliter (“μg/mL”) lysozyme, 5 mM magnesium chloride (MgCl2), 1 μg/ml DnaseI, 5 mM β-mercaptoethanol (βME), protease inhibitor-ethylenediamine tetraacetic acid (EDTA) free (Roche), homogenized and incubated for 20 minutes (min) at 4° C. The homogenate was sonicated and clarified by ultra-centrifugation at 235000 g for 1 hour (h) at 4° C. Imidazole was added to the supernatant to a final concentration of 15 mM and the pH adjusted to 8.0. The crude protein extract was loaded on a Nickel-Nitrilotriacetic acid (Ni-NTA) column pre-equilibrated with buffer B (25 mM HEPES, pH 8.0, 20% glycerol, 500 mM NaCl, 0.5% Triton X-100, 15 mM imidazole, 5 mM βME). The sample was loaded at a flow rate of 1 mL/min. The column was washed with 15 column volumes of buffer C (same as buffer B except with 0.2% Triton X-100). The protein was eluted with 5 column volumes of buffer D (same as buffer C except with 200 mM Imidazole).
NS3/4A protease complex-containing fractions were pooled and loaded on a desalting column Superdex-S200 pre-equilibrated with buffer D (25 mM HEPES, pH 7.5, 20% glycerol, 300 mM NaCl, 0.2% Triton X-100, 10 mM βME). Sample was loaded at a flow rate of 1 mL/min. […]

Compound	EC50 ([1]; activity range) [nM]	IC50 ([2]; activity range) [nM]	EC50 ([1]; numeric values) [nM]	IC50 ([2]; numeric values) [nM]
C=C[C@@H]1C[C@]1(NC(=O)[C@@H]1C[C@@](SC(C)C)(c2ccc(-c3ccccc3)cc2)CN1C(=O)[C@@H](NC(=O)OC(C)(C)C(F)(F)F)C(C)(C)C)C(=O)NS(=O)(=O)C1CC1 [Example 10, 1,1,1-trifluoro-2-methylpropan-2-yl (S)-1-((2S,4R)-4-(biphenyl-4-yl)-2-((1R,2S)-1-(cyclopropylsulfonylcarbamoyl)-2-vinylcyclopropylcarbamoyl)-4-(isopropylthio)pyrrolidin-1-yl)-3,3-dimethyl-1-oxobutan-2-ylcarbamate]	6 to 100	1 to 20	–	–
C=C[C@@H]1C[C@]1(NC(=O)[C@@H]1C[C@](c2ccc(-c3ccccc3)cc2)(S(=O)(=O)CCCC)CN1C(=O)[C@@H](NC(=O)OC(C)(C)C)C(C)(C)C)C(=O)NS(=O)(=O)C1CC1 (single isomer, unassigned) [Example 3]	–	–	6.6	1
